Consider two compounds from patent US20190365699A1, “Treatment of Kidney Tumors by Intratumoral Injection of Taxane Particles” (CRITITECH, INC., priority 2018, published 2019).

The nature of series [1]: BET specific surface area analysis. The format is physicochemical. The procedure:
As used herein, the “specific surface area” (SSA) is the total surface area of the taxane particle per unit of taxane mass as measured by the Brunauer-Emmett-Teller (“BET”) isotherm by the following method: a known mass between 200 and 300 mg of the analyte is added to a 30 mL sample tube. […] The automated test is then carried out using the BETWIN® software package and the surface area of each sample is subsequently calculated. As will be understood by those of skill in the art, the “taxane particles” can include both agglomerated taxane particles and non-agglomerated taxane particles; since the SSA is determined on a per gram basis it takes into account both the larger agglomerated and smaller non-agglomerated taxane particles in the composition. The agglomerated taxane particles are defined herein as individual taxane particles that are formed by the agglomeration of smaller particles which fuse together forming the larger individual taxane particles, all of which occurs during the processing of the taxane particles. […]
A known mass between 200 and 300 mg of the analyte was added to a 30 mL sample tube. […] The automated test was then carried out using the BETWIN® software package and the surface area of each sample was subsequently calculated.

A short description of series [2]: Bulk density (not tapped). The format is physicochemical. Particulars: room temperature. As for the experimental part: As used herein, the “specific surface area” (SSA) is the total surface area of the taxane particle per unit of taxane mass as measured by the Brunauer-Emmett-Teller (“BET”) isotherm by the following method: a known mass between 200 and 300 mg of the analyte is added to a 30 mL sample tube. […] The automated test is then carried out using the BETWIN® software package and the surface area of each sample is subsequently calculated. As will be understood by those of skill in the art, the “taxane particles” can include both agglomerated taxane particles and non-agglomerated taxane particles; since the SSA is determined on a per gram basis it takes into account both the larger agglomerated and smaller non-agglomerated taxane particles in the composition. The agglomerated taxane particles are defined herein as individual taxane particles that are formed by the agglomeration of smaller particles which fuse together forming the larger individual taxane particles, all of which occurs during the processing of the taxane particles. The BET specific surface area test procedure is a compendial method included in both the United States Pharmaceopeia and the European Pharmaceopeia. […]
The mass of the drug was measured to a nearest 0.1 mg, the volume was determined to the nearest 0.1 mL and the density calculated.

Series [3] can be described thus: Paclitaxel dissolution study, USP Apparatus II. Format: physicochemical. As for the experimental part:
Beads were transferred to a stainless steel mesh container and placed in the dissolution bath containing methanol/water 50/50 (v/v) media at 37° C., pH 7, and a USP Apparatus II (Paddle), operating at 75 rpm. […] Absorbance values of the samples were compared to those of standard solutions prepared in dissolution media to determine the amount of material dissolved. […] Absorbance values of the samples were compared to those of standard solutions prepared in dissolution media to determine the amount of material dissolved.
Beads were transferred to a stainless steel mesh container and placed in the dissolution bath containing methanol/water 50/50 (v/v) media at 37° C., pH 7, and a USP Apparatus II (Paddle), operating at 75 rpm. […] Absorbance values of the samples were compared to those of standard solutions prepared in dissolution media to determine the amount of material dissolved.

The nature of series [4]: Particle size analysis (light obscuration and laser diffraction). The format is physicochemical. An excerpt: The particle size of the taxane particles can be determined by a particle size analyzer instrument and the measurement is expressed as the mean diameter based on a number distribution (number). A suitable particle size analyzer instrument is one which employs the analytical technique of light obscuration, also referred to as photozone or single particle optical sensing (SPOS). A suitable light obscuration particle size analyzer instrument is the ACCUSIZER, such as the ACCUSIZER 780 SIS, available from Particle Sizing Systems, Port Richey, Fla. Another suitable particle size analyzer instrument is one which employs laser diffraction, such as the Shimadzu SALD-7101.
Particle size was analyzed by both light obscuration and laser diffraction methods.
The vials were vortexed for approximately 10 seconds and then sonicated in a sonic bath approximately 1 minute.
The vial was vortexed for approximately 10 seconds and then sonicated in a sonic bath for approximately 2 minutes. This suspension was used for laser diffraction analysis. Unused suspension was poured into a 125 mL particle-free plastic bottle, which was then filled to approximately 100 mL with filtered dispersant. The suspension was vortex for approximately 10 seconds and then sonicated in the sonic bath for approximately 2 minutes. This diluted suspension was used for light obscuration analysis. […]

Series [5] is described as follows: Docetaxel dissolution study, USP Apparatus II. Format: physicochemical. The procedure:
The procedures used to determine the dissolution rates are as follows. […] Beads were transferred to a stainless steel mesh container and placed in the dissolution bath containing methanol/water 50/50 (v/v) media at 37° C., pH 7, and a USP Apparatus II (Paddle), operating at 75 rpm. At 10, 20, 30, 60, and 90 minutes, a 5 mL aliquot was removed, filtered through a 0.22 μm filter and analyzed on a UV/VIS spectrophotometer at 227 nm. Absorbance values of the samples were compared to those of standard solutions prepared in dissolution media to determine the amount of material dissolved. […] At 5, 15, 30, 60, 120 and 225 minutes, a 5 mL aliquot was removed, filtered through a 0.22 μm filter, and analyzed on a UV/VIS spectrophotometer at 232 nm. Absorbance values of the samples were compared to those of standard solutions prepared in dissolution media to determine the amount of material dissolved.
At 5, 15, 30, 60, 120 and 225 minutes, a 5 mL aliquot was removed, filtered through a 0.22 μm filter, and analyzed on a UV/VIS spectrophotometer at 232 nm. Absorbance values of the samples were compared to those of standard solutions prepared in dissolution media to determine the amount of material dissolved.

Series [6] deals with human renal cell adenocarcinoma (786-O cell line). Briefly: Drug efficacy in rat xenograft model, tumor volume. Format: in vivo. The settings on record: IV, QW × 3, 2.5-5 mg/kg.
The test system is the same in series [7]. In words: H&E and immunohistochemical evaluation of xenograft tumors. Format: in vivo, Rat (Rattus norvegicus). Particulars: for morphologic and immunohistochemical appearance of tumor: IV, 3 weekly cycles, versus vehicle/control. The source says:
Tissue Collection: Primary Tumor (Inoculation site)—A final tumor measurement was taken prior to excision. Tumors were weighed after excision. Approximately ½ of each tumor (based on visual assessment) was flash frozen in 2-methylbutane on dry ice, the tumor piece was weighed when possible before it is flash frozen. The remaining was fixed in 10% neutral buffered formalin. Tumors were also collected from animals not reaching enrollment volume. Secondary Tumors—Any organ with visible tumors were collected and fixed in 10% neutral buffered formalin. Formalin fixed tissues were stored at room temperature. Frozen tissues were stored at −80° C. All tissue was stored for up to 3 months. Pictures of all tumors; primary and secondary if present, were taken.
Microscopic Examination: Tissues fixed with 10% NBF were embedded in paraffin. Each tumor was cut into 2-3 pieces and embedded and sectioned together.

The nature of series [8]: Body weight and clinical observations in xenograft study. The settings on record: IV, group 6, initial dosage 5 mg/kg.
Experimental: Individual Body Weights: Three times weekly (M, W, F) starting at the time of inoculation.
Macroscopic Examination: A necropsy was conducted on all animals dying spontaneously, euthanized in extremis or at the scheduled necropsy after 50 days post initiation of treatment. Animals euthanized in extremis or at study termination were euthanized by CO2 inhalation. Necropsy included examination of the external surface, all orifices and the thoracic, abdominal and pelvic cavities, including viscera. At the time of necropsy, a final body weight and body condition score was collected.

Like-named read-outs stand apart in the source and are kept apart here.

With `CC(=O)O[C@H]1C(=O)[C@@]2(C)[C@H]([C@H](OC(=O)c3ccccc3)[C@]3(O)C[C@H](OC(=O)[C@H](O)[C@@H](NC(=O)c4ccccc4)c4ccccc4)C(C)=C1C3(C)C)[C@]1(OC(C)=O)CO[C@@H]1C[C@@H]2O` [Paclitaxel Raw Material, paclitaxel], the “Surface area (BET, SSA)” value in series [1] is recorded as 10.4 m^2/g; in series [1] (listed as raw paclitaxel), 7.25 m^2/g. In addition, the “Bulk Density (not tapped)” value in series [2] worked out at 0.26 g/mL. Besides, the “Paclitaxel Dissolution time course” value in series [3] (0 minutes) stood at 0.0%. In series [3] (methanol/water 50/50 (v/v), 37° C., pH 7, 75 rpm, 30 min), the “Dissolution (30 min)” value is given as 18%.
On to `CC(=O)O[C@@]12CO[C@@H]1C[C@H](O)[C@@]1(C)C(=O)[C@H](O)C3=C(C)[C@@H](OC(=O)[C@H](O)[C@@H](NC(=O)OC(C)(C)C)c4ccccc4)C[C@@](O)([C@@H](OC(=O)c4ccccc4)[C@H]21)C3(C)C` [docetaxel], for which the “Number Mean” value in series [4] turned out to be 1.58 um. In addition, the “Volume Mean” value in series [4] is reported as 5.05 um. Moreover, the “Docetaxel Dissolution time course” value is 0.0% in series [5] (0 minutes), 3.2% in series [5] (5 minutes) and 6.9% in series [5] (15 minutes). Further, in series [5] (methanol/water 15/85 (v/v), 37° C., pH 7, 75 rpm, 30 min), the “Dissolution (30 min)” value was 11%. Moreover, in series [6], the tumor growth entry is on record as “partial tumor growth inhibition compared to vehicle control”. Moreover, in series [7] (H/E and CD11b, IV docetaxel 3 cycles, 2 animals), the “animals with Mild lymphohistiocytic infiltrate density” value is reported as 2. The “animals with <5% of tissue showing necrosis” value in series [7] (IV docetaxel 3 cycles, 2 animals) was 2. Moreover, the “animals with viable carcinoma >10 mm” value in series [7] (IV docetaxel 3 cycles, 2 female rats) amounted to 2. The “morphologic and immunohistochemical appearance of tumor” value in series [7] was “identical morphologic and immunohistochemical appearance to that seen in the control and IT vehicle groups”; in series [7] (listed as Docetaxel) it was “no difference”. The toxicity entry in series [8] was “observed toxicity on day 7”.
